“Also recorded” adds a separate entry of the source.

In the assay the test system is ovarian cancer OVCAR8 cells. As to the kind of experiment: Cell proliferation assay (MTT), OVCAR8 cells. The class given is cell-based, Human. As to conditions: single agents and combinations. As to the method:
Cell Proliferation Assay (MTT)
The cell proliferation assay was performed as described previously in Sun et al., Bioorg Med Chem Lett, 2004, Vol. 14, pp. 2041-2046. Briefly, 50 μl aliquots of medium with different concentrations of compounds were added to 96-well plates. All compound concentrations were tested in triplicate. Another 50 μl of the cell stock (1×10^5 cells/ml of media) was dispensed into each test well and the plates were incubated at 37° C. in a CO2 incubator for 3 days. Following the incubation period, 15 μl of the dye solution was added to each well and the plates were then incubated at 37° C. for 4 hours, followed by the addition of 100 μl per well of the solubilization solution. The plates were incubated at 37° C. until the contents in each well became a uniform-colored solution. The absorbance was measured and recorded at 570 nm by a Victor Plate Reader.
The cell proliferation assay (Promega, Madison, Wis.) was performed as described in Sun et al., Bioorg Med Chem Lett, 2004, Vol. 14, pp. 2041-2046. The absorbance was measured and recorded at 570 nm by a Victor Plate Reader (PerkinElmer, Boston, Mass.).

For the compound `CCCC(CCC)C(=O)O` [VPA, valproic acid], the “cell growth suppression (MTT), in words” value is “displayed its anti-proliferative ability; also recorded: displays its anti-proliferation ability”.

The values are drawn from patent US9358272B2, “Multicomponent compositions and their uses” (THE ADMINISTRATORS OF THE TULANE EDUCATIONAL FUND, priority 2011, dated 2016).
